Experimental data taken from patent US20260092085A1, “SYNTHETIC TRIPLEX PEPTIDE NUCLEIC ACID-BASED INHIBITORS FOR CANCER THERAPY” (University of Connecticut, priority 2022, published 2026).

Key:
U2932 cells = assay: Cell viability by trypan blue assay, U2932; assay type: cell-based, human; conditions: U2932, in comparison to PBS treated control cells
Experimental: (§1) Cell viability was performed using trypan blue-based assay (n=3 technical triplicate), data represented as mean±(SEM), * represents the statistical analysis were performed relative to Scr-γtcPNA-155 and ♦ represent analysis performed relative to PNA-155. *p<0.05, **p<0.01, ***p<0.001 and ****p<0.0001, ♦p<0.05, ♦♦p<0.01, unpaired two-tailed t-test was used for statistical analysis. The experiment was repeated three times and in triplicate.
(§2) Cell viability was performed using trypan blue-based assay (n=3), data represented as mean±standard error mean (SEM), *p<0.05, **p<0.01. Unpaired two-tailed t-test was used for statistical analysis.
(§3) Cell viability was performed using trypan blue-based assay (n=3), data represented as mean±standard error mean (SEM).
(§4) Cell viability by trypan blue assay: Diffused large B cell lymphoma (DLBCL) cell lines like SUDHL-2 (ATCC® CRL-2956™) and SUDHL-5 (ATCC® CRL-2958™) cells were purchased from ATCC (Virginia, USA). The cells were regularly tested for Mycoplasma contamination using MycoAlert™ Mycoplasma detection kit (Lonza). All the cells used in the experiment were passaged less than 8 times. 10,000 U2932, SUDHL-5, or SUDHL-2 cells were plated in a 96 well plate. The cells were treated with different doses (500 nM, 1000 nM, 2000 nM and 4000 nM) of PNA-155, gamma tcPNA-155 or Scr-γtcPNA-155 for 48 hrs in an incubator (37° C. and 5% CO2). The dead cells were marked with trypan blue. Further counting was performed using an automated cell counter (Bio-rad).

SUDHL-2 cells = assay: Cell viability by trypan blue assay, SUDHL-2; assay type: cell-based; conditions: SUDHL-2, in comparison to PBS treated control cells
Experimental: as §1, §2, §3, §4

SUDHL-5 cells = assay: Cell viability by trypan blue assay, SUDHL-5; assay type: cell-based; conditions: SUDHL-5, in comparison to PBS treated control cells
Experimental: as §1, §2, §3, §4

PBMC cells = assay: Safety assessment by trypan blue assay in PBMC; assay type: cell-based; conditions: 500-4000 nM, 48 hours
Experimental: Control is PBS treated PBMC cells. n=3, data represented as mean±standard error mean (SEM).
Safety assessment by trypan blue assay […] blood mononuclear cells (PBMC) (ATCC® PCS-800-011™) were purchased from ATCC (Virginia, USA). The cells were regularly tested for Mycoplasma contamination using MycoAlert™ Mycoplasma detection kit (Lonza). All the cells used in the experiment were passaged less than 2 times. 10,000 PBMC cells were seeded in a 96 well plate. The cells were treated with 500 nM, 1000 nM, 2000 nM and 4000 nM PNA-155 and γtcPNA-155 for 48 hrs in an incubator. The dead cells were examined with trypan blue and further counted using an automated cell counter (Bio-rad).

[1] = test system: U2932 subcutaneous tumors; assay: Tumor growth in U2932 derived xenograft model; assay type: in vivo, NSG mice; conditions: intra-tumoral injections days 0, 7, 14
Experimental: Mouse tumor xenograft: Female NSG mice (NOD.Cg-Prkdcscid Il2rgtm1Wjl/SzJ, strain 005557) weighing 20-23 g were procured from Jackson laboratories. 1×10^7 U2932 cells suspended in RPMI-1640 medium were injected subcutaneously in the right and left flank of 6-week-old NSG mice. The mice developed a small bump in 2 weeks. When the tumor volume reached 100-200 mm^3, the mice were randomly assigned to the treatment group (n=6 per group).
(§5) RNA and Protein extraction from tumor samples: The mice were injected intra-tumorally with 1 mg kg-1 dose of PNA-155, γtcPNA-155, γPNA-155, Scr-γtcPNA-155 or were untreated. The injections were repeated two additional times after 1 week each. The length, breadth, and depth of the tumors were measured daily using a vernier caliper. The mice were euthanized when the tumor volumes reached 2000 mm^3. The resected tumor sections were finely minced using a sterile blade and suspended in dissociation media (4 ml) comprising of RPMI-1640, 1.2 mg/ml dispase, and 0.5 mg/ml collagenase for 90 mins at 500 rpm at 37° C. The dissociated tumors were washed with buffer saline at 2500 rpm (4 mins) at 4° C. and then suspended in 0.25% trypsin for 4 mins at room temperature. RPMI 1640 media was added to the trypsinized tumor mass, and the cells were passed through a 70 um filter. The cells were centrifuged at 2500 rpm for 4 mins at 4° C. The cell pellet was then suspended in 1×RBC lysis buffer (Sigma) and incubated on ice for 10 mins. PBS was added to the cells and the cells were passed through a 40 um filter. The cells were centrifuged at 2500 rpm for 4 mins at 4° C. The cell pellet was resuspended in 0.5% BSA in PBS. The mouse cells were removed from the tumor cells using a mouse cell depletion kit (Miltenyi Biotec) according to the manufacturer's protocol. The enriched tumor cells from each tumor sample were divided into two fractions. RNA for gene expression analysis was extracted from one tumor fraction by the same procedure as mentioned earlier. The protein for western blot analysis was extracted from the second fraction using the method described above.
For the efficacy study, each mouse received three intra-tumoral injections of either γtcPNA-155, γPNA-155 or PNA-155 on days 0, 7, 14. We noticed that the control and scrambled treated tumors reached 2000 mm^3 much faster during our study, so we could not inject a third time in these mice. […] In contrast, as stated earlier, there was no effect on the control and scrambled PNA control on the tumor volume.

miR-155 = miR-155 gene expression in U2932 tumor samples after in vivo treatment; design: species or system NSG mice; conditions: U2932 xenograft
Experimental: (§6) FIGS. 22A-D show in vivo gene expression and protein level analysis. (22A) miR-155 gene expression levels in U2932 tumor samples after in vivo treatment with indicated PNAs. Data was normalized with average control U6 (n=4, data represented as mean±standard error mean). ***p<0.001 (22B) Gene expression level of downstream target genes of miR-155: MCL1 in U2932 tumor samples after treatment with total 3 mg kg-1 dose of Scr-γtcPNA-155, PNA-155, γPNA-155 and γtcPNA-155 and normalized with average control GAPDH (n=3, data represented as mean±SEM), unpaired two-tailed t-test was performed for analysis). *p<0.05, **p<0.01 (22C) Representative western blot of Mcl-1 protein and its quantification (n=3 technical replicate) in U2932 tumor samples treated with total 3 mg kg-1 dose of Scr-γtcPNA-155, PNA-155 and γtcPNA-155. Data is represented as mean±SEM and unpaired two-tailed t-test was performed for analysis. *p<0.05. The relative protein levels were determined from the band intensity using ImageJ software and normalized relative to loading control and treatment control. (22D) Gene expression level of tumor suppressor proteins (FOXO3A, CUX1, SOCS1, CSF1R, JARID2, SHIP1, PICALM, PDCD4, BACH1, CASP3) in U2932 tumor samples after treatment with total 3 mg kg-1 dose of Scr-γtcPNA-155, PNA-155, γPNA-155 and γtcPNA-155 and normalized with average control GAPDH (n=3, data represented as mean±SEM, unpaired two-tailed t-test was performed for statistical analysis). *p<0.05, **p<0.01.
as §5, with “The mouse cells were removed from the tumor cells using a mouse cell depletion kit (Miltenyi Biotec) according to the manufacturer's protocol. The enriched tumor cells from each tumor sample were divided into two fractions. RNA for gene expression analysis was extracted from one tumor fraction by the same procedure as mentioned earlier. The protein for western blot analysis was extracted from the second fraction using the method described above.” left out

miR-155 downstream genes = assay: Downstream gene expression and protein levels in U2932 tumor samples; assay type: in vivo, NSG mice; conditions: U2932 xenograft
Experimental: as §6
Data is represented as mean±SEM and unpaired t-test was used for statistical analysis *p<0.05. The relative protein levels were determined from the band intensity using ImageJ software and normalized relative to loading control and treatment control.
Data is represented as mean±SEM and unpaired t-test was used for statistical analysis.
Data is represented as mean±SEM and unpaired t-test was used for statistical analysis. The relative protein levels were determined from the band intensity using ImageJ software and normalized relative to loading control and treatment control.
as §5

Scr-γtcPNA-155: scrambled γtcPNA-155 synthesized as a control, SEQ ID NO: 4 (ACNTGCCATTNCACGAACNCT; gamma PNA backbone; scramble sequence; misc_feature 1 Arg-Arg-adenine-thymine-pseudoisocytosine-thymine -adenine-11-amino-3,6,9-trioxaundecanoic acid covalently linked to the backbone; modified_base 3 OTHER; n is pseudoisocytosine; modified_base 11 OTHER; misc_feature 21 Arg-Arg covalently linked to the backbone; modified_base 19 OTHER; modified_base 1..21 OTHER; peptid) [reference compound]
effect on cell viability (U2932 cells): did not notice any effect on cell viability | effect on cell viability (SUDHL-2 cells): did not notice any effect on cell viability | effect on cell viability (SUDHL-5 cells): did not notice any effect on cell viability | viability of PBMC cell lines (PBMC cells): do not cause any non-specific effects | tumor growth / tumor volume [1]: no effect | miR-155 expression level in tumors (change) (miR-155): did not observe a change | alteration in gene expression in tumors (miR-155 downstream genes): did not notice any alteration | Mcl-1 protein level in tumors (miR-155 downstream genes; western blot): did not notice any alteration
